From ChEMBL document CHEMBL1201862, “PubChem BioAssay data set” (2004) come the findings set out here.

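These data come from cells grown in 96-well plates and exposed to compound for 48 hours at five concentrations. Abbreviation: GI50, concentration required for 50% inhibition of growth.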 Activity calls are given as the source filed them. Rule as the data show it: active = GI50 up to about 1.1 µM and inactive = higher. Bounds are passed on as bounds.

What all share (test): NCI tumour cell line growth inhibition, 48 h
Assay [1] relates to OVCAR-8.
For assay [2], the system named is PC-3.
In assay [3] the test system is ACHN.
In assay [4] the test system is SW-620.
For assay [5], the system named is SF-539.
Assay [6] deals with HL-60.
In assay [7] the test system is RXF 393.
Assay [8] concerns HOP-92.
Assay [9] relates to EKVX.
Assay [10] relates to 786-0.
The test system of assay [11] is U-251.
The subject of assay [12] is UACC-257.
For assay [13], the system named is UO-31.
Assay [14] concerns SK-MEL-28.
The test system of assay [15] is HCT-116.
Assay [16] relates to Hs-578T.
The subject of assay [17] is OVCAR-5.
Assay [18] has as its system MDA-MB-231.
Assay [19] deals with CAKI-1.
The subject of assay [20] is Malme-3M.

Consider `Nc1ccc2c(c1)S(=O)(=O)c1cc(O)ccc1O2`, for which the GI50 in assay [1], in [2], in assay [3], in assay [4], in [5] and in [6] was > 100 µM (inactive) each time. The GI50 was 48.3 µM (inactive) in assay [7]; > 100 µM (inactive) in [8]; > 100 µM (inactive) in assay [9]; > 100 µM (inactive) in assay [10]; > 100 µM (inactive) in assay [11]; > 100 µM (inactive) in assay [12]. For the same molecule, the GI50 in assay [13] is 55.3 µM (inactive); in assay [14], > 100 µM (inactive); in [15], > 100 µM (inactive); in assay [16], > 100 µM (inactive); in assay [17], > 100 µM (inactive); in assay [18], > 100 µM (inactive). In addition, the GI50 in [19] was 45.2 µM (inactive).
As to `COc1cc(C2SCC(=O)N2c2ccc(NC(=O)c3ccc(N4C(=O)CSC4c4cc(OC)c(OC)c(OC)c4)cc3)cc2)cc(OC)c1OC` (stereo not drawn), the GI50 in assay [1] was 40.3 µM (inactive); in assay [20] it was 79.1 µM (inactive); in assay [2], 58.3 µM (inactive); in [3], 63.7 µM (inactive); in [4] it was 36.9 µM (inactive); in assay [5] it was 42.7 µM (inactive). Moreover, the GI50 was 58.6 µM (inactive) in [7]; 16.4 µM (inactive) in assay [8]; 57 µM (inactive) in assay [9]; 70 µM (inactive) in [10]; 49.3 µM (inactive) in assay [11]; 60.5 µM (inactive) in assay [12]. Moreover, the GI50 is 67.1 µM (inactive) in [13]; 42.5 µM (inactive) in assay [14]; 35.1 µM (inactive) in assay [15]; 68.1 µM (inactive) in assay [16]; 95.1 µM (inactive) in assay [17]; > 100 µM (inactive) in assay [18]. The GI50 in assay [19] is > 100 µM (inactive).
Consider `O=C(OCc1ccccc1CN1CCOCC1)c1ccc(Br)cc1`, for which the GI50 is 85.1 µM (inactive) in [1]; 23.3 µM (inactive) in assay [20]; 85.5 µM (inactive) in [2]; > 100 µM (inactive) in assay [3]; > 100 µM (inactive) in assay [4]; > 100 µM (inactive) in [5]. Further, the GI50 in assay [7] was > 100 µM (inactive); in [8] it was 93.1 µM (inactive); in assay [9], 55.1 µM (inactive); in assay [10], > 100 µM (inactive); in [11] it was 88.7 µM (inactive); in [12] it was 43.2 µM (inactive). The GI50 in assay [13] was 95.7 µM (inactive); in [14], 92 µM (inactive); in assay [15], 32.6 µM (inactive); in assay [16] it was 69.3 µM (inactive); in assay [17], 73.1 µM (inactive); in assay [18], 71.4 µM (inactive).
Regarding `COc1cc(S(=O)(=O)Nc2ccc(-c3csc(/N=C\c4ccccc4)n3)cc2)ccc1Cl`, the GI50 in assay [1] is > 100 µM (inactive); in assay [20], > 100 µM (inactive); in [2], 48.2 µM (inactive); in [3], > 100 µM (inactive); in assay [4] it was 33.5 µM (inactive); in assay [5], 35.1 µM (inactive). Further, the GI50 is 25.6 µM (inactive) in assay [6]; 1.44 µM (inactive) in assay [7]; > 100 µM (inactive) in assay [8]; 30.3 µM (inactive) in assay [9]; 81.3 µM (inactive) in [10]; 74.3 µM (inactive) in assay [13]. Besides, the GI50 was 33.7 µM (inactive) in [14]; 44.8 µM (inactive) in assay [15]; 53.3 µM (inactive) in assay [16]; > 100 µM (inactive) in assay [17]; 37.2 µM (inactive) in assay [18]; > 100 µM (inactive) in assay [19].
Consider `CC(C)(C)NC(=O)[C@H]1CC[C@H]2[C@@H]3CC=C4NC(=O)CC[C@]4(C)[C@H]3CC[C@]12C`, for which the GI50 is 70.3 µM (inactive) in [1]; > 100 µM (inactive) in [20]; > 100 µM (inactive) in [2]; > 100 µM (inactive) in [3]; > 100 µM (inactive) in [4]; > 100 µM (inactive) in [5]. Further, the GI50 in assay [6] was > 100 µM (inactive); in assay [7], > 100 µM (inactive); in assay [8], 97.9 µM (inactive); in assay [9], > 100 µM (inactive); in assay [10], 90.2 µM (inactive); in assay [11] it was > 100 µM (inactive). The GI50 in [12] was 69.3 µM (inactive); in assay [13], > 100 µM (inactive); in [14], > 100 µM (inactive); in assay [15], > 100 µM (inactive); in assay [16], 50.9 µM (inactive); in assay [17] it was > 100 µM (inactive). Besides, the GI50 in assay [18] was 29.3 µM (inactive).
In the case of `c1ccc(/C(=N\Nc2nc3ccccc3[nH]2)c2ccccn2)cc1`, the GI50 is 0.254 µM (active) in [1]; 0.687 µM (active) in assay [20]; 0.182 µM (active) in assay [2]; 0.268 µM (active) in assay [3]; 0.204 µM (active) in assay [4]; 0.388 µM (active) in [5]. The GI50 in assay [7] was 0.716 µM (active); in assay [8], 0.238 µM (active); in [9] it was 0.47 µM (active); in assay [10], 0.31 µM (active); in assay [11], 0.407 µM (active); in [12] it was 0.298 µM (active). In addition, the GI50 is 0.291 µM (active) in assay [13]; 1.14 µM (inactive) in [14]; 0.0362 µM (active) in assay [15]; 5.5 µM (inactive) in assay [16]; 0.733 µM (active) in [17]; 0.415 µM (active) in assay [18]. Also, the GI50 in assay [19] is 0.425 µM (active).
`CCCCC(C(=O)N/N=C/c1ccc([N+](=O)[O-])o1)C(=O)N/N=C/c1ccc([N+](=O)[O-])o1`: the GI50 is 2.05 µM (inactive) in assay [1]; 2.2 µM (inactive) in assay [20]; 2.81 µM (inactive) in assay [2]; 1.82 µM (inactive) in [3]; 2.54 µM (inactive) in [4]; 10.1 µM (inactive) in assay [5]. Also, the GI50 in assay [6] was 2.52 µM (inactive); in assay [7], 2.07 µM (inactive); in assay [8] it was 1.52 µM (inactive); in [9], 13.4 µM (inactive); in assay [10], 2.11 µM (inactive); in assay [11] it was 2.74 µM (inactive). The GI50 was 1.99 µM (inactive) in [13]; 3.96 µM (inactive) in [14]; 1.36 µM (inactive) in [15]; 2.4 µM (inactive) in assay [16]; 2.81 µM (inactive) in [17]; 3.81 µM (inactive) in [18]. For the same molecule, the GI50 in assay [19] is 4.06 µM (inactive).
Consider `COC(COC(=O)N1CCN(C=O)CC1)C1=C(N2CC2)C(=O)C(C)=C(N2CC2)C1=O` (stereo not drawn), for which the GI50 in assay [1] is 0.17 µM (active); in [20], 0.336 µM (active); in assay [2], 0.461 µM (active); in [3], < 0.0193 µM (active); in assay [4], 0.141 µM (active); in assay [5], 0.0632 µM (active). The GI50 was 0.228 µM (active) in assay [7]; 0.198 µM (active) in [8]; 5.08 µM (inactive) in assay [9]; 0.0644 µM (active) in [10]; 0.219 µM (active) in [11]; 0.309 µM (active) in assay [12]. Further, the GI50 in assay [13] was 0.486 µM (active); in assay [14] it was 1.27 µM (inactive); in assay [15], 0.157 µM (active); in [16] it was 1.26 µM (inactive); in [17] it was 2.56 µM (inactive); in [18], 2.29 µM (inactive). In addition, the GI50 in [19] was 0.12 µM (active).
Turning to `COC(=O)c1csc([C@@H](OC(=O)[C@H](C)[C@H](CCCC(C)(Cl)Cl)OC(=O)c2csc([C@H](O)CO)n2)C(C)C)n1`, the GI50 in [1] is 4.61 µM (inactive); in assay [20] it was 17.3 µM (inactive); in [2], 13.6 µM (inactive); in assay [3], 13.1 µM (inactive); in assay [4], 17.9 µM (inactive); in assay [5], 2.92 µM (inactive). Also, the GI50 in assay [6] was 17.9 µM (inactive); in assay [7] it was 1.89 µM (inactive); in [8], 10.7 µM (inactive); in assay [9] it was 17.1 µM (inactive); in assay [10] it was 14 µM (inactive); in [11], 17.8 µM (inactive). In addition, the GI50 in assay [12] is 11 µM (inactive); in assay [13], 6.93 µM (inactive); in assay [14] it was 11.8 µM (inactive); in assay [16] it was 2.11 µM (inactive); in assay [17] it was 15.5 µM (inactive); in assay [18], 17.6 µM (inactive). For the same molecule, the GI50 in [19] was 17.7 µM (inactive).
Regarding `CN(C)c1ccc(/C=C2\N=C(c3ccccc3)N(c3nc4ccc(Sc5ccccc5)cc4[nH]3)C2=O)cc1`, the GI50 was 43 µM (inactive) in assay [1]; 99.8 µM (inactive) in [20]; 39.1 µM (inactive) in assay [2]; 81.8 µM (inactive) in assay [3]; 34.6 µM (inactive) in assay [4]; 6.61 µM (inactive) in assay [6]. Further, the GI50 was 50.2 µM (inactive) in [7]; 94.4 µM (inactive) in assay [8]; 40.7 µM (inactive) in assay [9]; 42.2 µM (inactive) in [10]; 47.9 µM (inactive) in assay [11]; 24.3 µM (inactive) in assay [12]. The GI50 in assay [13] is 59.3 µM (inactive); in assay [14], 57.1 µM (inactive); in [15], 36.3 µM (inactive); in assay [16], 35.2 µM (inactive); in [17], 41.8 µM (inactive); in [18], 49.1 µM (inactive). In addition, the GI50 in assay [19] is 35.4 µM (inactive).
